Patent publication US20250084062A1, “SUBSTITUTED QUINOLINE DERIVATIVE” (ASTELLAS PHARMA INC., priority 2021, published 2025)
Where a name gives a salt, the structure may show the parent alone. Read-outs that look alike come from different tables or passages of the source.

Test system: acetylcholine receptor clustering in C2Cl2 cells
Experiment: Induction of acetylcholine receptor clustering in mouse myoblasts C2Cl2 cells (Test Example 1)
Assay type: cell-based
Details: for Emax / EC50: Mus musculus; for Emax: Myoblast, read-out: Max; for response, % at 30 μM: vs 10 ng/ml Agrin (100%); for EC50: Myotube
Description: Test Example 1: Evaluation of the Induction of Acetylcholine Receptor Clustering in Mouse Myoblasts C2Cl2 Cells
Induction of acetylcholine receptor clustering by the test compound was evaluated by using fluorescently-labeled Bungarotoxin to image and quantify the acetylcholine receptor cluster region induced by the differentiation of myoblasts into myotubes, and measure the change in area. The following test method was optimized with reference to various reports including FEBS let., 586, 3111-3116 (2012). When a concentration response curve is obtained by plotting the logarithmic concentration of the test compound on the horizontal axis and the ratio of the area of acetylcholine receptor cluster region on the vertical axis, the inducing action of the test compound can be determined.
A concentration response curve as an index indicating acetylcholine receptor clustering inducing action of the test compound in mouse C2Cl2 cells was prepared. C2Cl2 cells (ATCC Number: CRL-1772) were seeded at about 5000 cells/well on a 384-well plate (354667; Corning) coated with type I collagen and allowed to incubate at 37 degrees Celsius overnight in DMEM+20% FBS+1% penicillin/streptomycin medium. The following day, the medium was removed and replaced with a differentiation medium containing DMEM+2% FBS+1% penicillin/streptomycin, and allowed to incubate at 37 degrees Celsius for 4 days. The test compound was dissolved in DMSO and added to a differentiation medium containing 0.1 ng/ml Agrin (550-AG-100; R&D systems) such that the final concentration was […] (3-fold serial dilution) or 0.00017 to 3.3 μM (3-fold serial dilution). The final concentration of DMSO was 0.3%. After the 4 days of incubation, the differentiation medium was replaced with a differentiation medium containing the test compound and 0.1 ng/ml Agrin or a differentiation medium containing 0.1 ng/ml Agrin or 10 ng/ml Agrin alone, and allowed to incubate at 37 degrees Celsius overnight. The next day, 10 μl of DMEM containing Bungarotoxin-Alexa488 (B13422; Life technologies) was added to the differentiation medium containing test compound and Agrin and Agrin alone so that the final concentration of Bungarotoxin-Alexa488 was 1 μg/ml, and was allowed to incubate at 37 degrees Celsius for 1 hour to label the acetylcholine receptor. After removing all the medium, 4% PFA was added to each well and allowed to incubate at room temperature for 10 minutes, then washed with PBS, and allowed to incubate at room temperature for 30 minutes in PBS containing 5% goat serum and 0.3% Triton X-100. After removing the PBS solution, PBS-Tween20 (28352; Thermo fisher scientific) containing Anti-Myosin Heavy Chain eFluor (registered trademark) 660 (50-6503-82; eBioscience) and DAPI (340-07971; Dojindo) was added to each well and allowed to incubate at room temperature for 1 hour to label the myotubes and nuclei. After washing three times with PBS-Tween20, the fluorescence was imaged using IN Cell Analyzer 6000 (GE Healthcare). […] The response of control group (1) was regarded as 0% and the response of the control group (2) was regarded as 100%. For quantification, the signal of only the acetylcholine receptor present in the myotube was used to eliminate non-specific fluorescence.
EC50 and Max value were used as indicators of activity in order to quantitatively evaluate the inducing action of the test compound on acetylcholine receptor clustering. EC50 value is a test compound concentration which indicates 50% in terms of the area of acetylcholine receptor cluster region compared to that of 10 ng/ml Agrin (regarded as 100%) in the concentration response curve. EC50 was calculated by nonlinear regression analysis from the concentration response curve using the area of the cluster region of the test compound as an index. Max value is the maximum response value. […]

[1] = maximum response, area of acetylcholine receptor cluster region vs 10 ng/ml Agrin (100%), 0.1 ng/ml Agrin = 0%
[2] = C2Cl2 myotubes, with 0.1 ng/ml Agrin, concentration giving 50% of cluster area of 10 ng/ml Agrin (100%), read-out: EC50

| SMILES | EC50 [2] | Emax [1] | response, % at 30 μM | Emax | EC50 |
| --- | --- | --- | --- | --- | --- |
| CO[C@@H]1CN(S(=O)(=O)c2ccc(-c3cc(C)c4ccc(C(=O)O)cc4n3)c(F)c2)C[C@H]1F [Example 29] |  | 46.2% | 46.2% at 30 μM |  |  |
| Cc1cc(-c2c(F)cc(S(=O)(=O)N3CC[C@H](F)C3)cc2F)nc2nc(C3CCN(C)CC3)ccc12 [Example 17, 2-{2,6-difluoro-4-[(3S)-3-fluoropyrrolidine-1-sulfonyl]phenyl}-4-methyl-7-(1-methylpiperidin-4-yl)-1,8-naphthyridine hydrochloride] | 65 nM | 78.7% |  |  |  |
| Cc1c(F)c(-c2c(F)cc(S(=O)(=O)N3CCC[C@@H]3C)cc2F)nc2cc(C(=O)O)ccc12 [Example 24] | 11 nM | 92.3% |  |  |  |
| CNCCNC(=O)c1ccc2c(C)cc(-c3c(F)cc(S(=O)(=O)N4CC[C@H](F)C4)cc3F)nc2c1 [Example 10, 2-{2,6-difluoro-4-[(3S)-3-fluoropyrrolidine-1-sulfonyl]phenyl}-4-methyl-N-[2-(methylamino)ethyl]quinoline-7-carboxamide hydrochloride] | 16 nM | 96.7% |  |  |  |
| CNCCNC(=O)c1ccc2c(C)cc(-c3c(F)cc(S(=O)(=O)N4CC[C@H](F)C4)cc3F)c(F)c2n1 [Example 15, 7-{2,6-difluoro-4-[(3S)-3-fluoropyrrolidine-1-sulfonyl]phenyl}-8-fluoro-5-methyl-N-[2-(methylamino)ethyl]quinoline-2-carboxamide hydrochloride] | 2 nM | 105% |  |  |  |
| Cc1cc(-c2c(F)cc(S(=O)(=O)N3CC[C@H](F)C3)cc2F)nc2cc(/C=C/C(=O)O)ccc12 [Example 35] | 20 nM | 99.5% |  |  |  |
| Cc1cc(-c2c(F)cc(S(=O)(=O)N3CC[C@H](F)C3)cc2F)nc2nc(OCC(=O)O)ccc12 [Example 6, [(7-{2,6-difluoro-4-[(3S)-3-fluoropyrrolidine-1-sulfonyl]phenyl}-5-methyl-1,8-naphthyridin-2-yl)oxy]acetic acid] | 1820 nM | 76.3% |  |  |  |
| Cc1cc(-c2ccc(S(=O)(=O)N3CC[C@H](F)C3)cc2CO)nc2cc(C(=O)O)ccc12 [Example 31] |  | 48.8% | 48.8% at 30 μM |  |  |
| CNCCCc1ccc2c(C)c(F)c(-c3c(F)cc(S(=O)(=O)N4CC[C@H](F)C4)cc3F)nc2c1 [Example 16, 3-(2-{2,6-difluoro-4-[(3S)-3-fluoropyrrolidine-1-sulfonyl]phenyl}-3-fluoro-4-methylquinolin-7-yl)-N-methylpropan-1-amine hydrochloride] | 45 nM | 91.1% |  |  |  |
| COCc1cc(S(=O)(=O)N2CC[C@H](F)C2)ccc1-c1cc(C)c2ccc(C(=O)O)cc2n1 [Example 32] |  | 38.8% | 38.8% at 30 μM |  |  |
| Cc1cc(-c2c(F)cc(S(=O)(=O)N3CC[C@H](F)C3)cc2F)nc2cc(C(=O)O)ccc12 [Example 1, 2-{2,6-difluoro-4-[(3S)-3-fluoropyrrolidine-1-sulfonyl]phenyl}-4-methylquinoline-7-carboxylic acid] | 64 nM | 91.9% |  |  |  |
| Cc1cc(-c2c(F)cc(S(=O)(=O)N3CC[C@H](F)C3)cc2F)nc2cc(C(=O)N[C@@H](CN)C(=O)O)ccc12 [Example 12, (2S)-3-amino-2-(2-{2,6-difluoro-4-[(3S)-3-fluoropyrrolidine-1-sulfonyl]phenyl}-4-methylquinoline-7-carboxamido) propanoic acid hydrochloride] | 268 nM | 69.7% |  |  |  |
| Cc1cc(-c2ccc(S(=O)(=O)N3CCC(F)CC3)cc2F)nc2cc(C(=O)O)ccc12 [Example 5, 2-[2-fluoro-4-(4-fluoropiperidine-1-sulfonyl)phenyl]-4-methylquinoline-7-carboxylic acid] | 95 nM | 86.8% |  |  |  |
| Cc1c(F)c(-c2c(F)cc(S(=O)(=O)N3CCCC3(C)C)cc2F)nc2cc(C(=O)O)ccc12 [Example 26] | 19 nM | 99.8% |  |  |  |
| Cc1cc(-c2c(F)cc(S(=O)(=O)N3CC[C@H](F)C3)cc2F)cc2cc(C(=O)O)ccc12 [Example 67] |  |  |  | 94.3% | 15 nM |

Second part, led by results:

| EC50 [2] | SMILES | Emax [1] | response, % at 30 μM | Emax | EC50 |
| --- | --- | --- | --- | --- | --- |
| 392 nM | Cc1cc(-c2c(F)cc(S(=O)(=O)N3CC[C@H](F)C3)cc2F)nc2nc(C3=CCC(C(=O)O)CC3)ccc12 (some centres unmarked) [Example 36] | 80.2% |  |  |  |
| 5 nM | Cc1c(F)c(-c2c(F)cc(S(=O)(=O)N3CCC(F)CC3)cc2F)nc2cc(C(=O)N3CC4(CN(C)C4)C3)ccc12 [Example 44] | 81.8% |  |  |  |
| 1090 nM | Cc1cc(-c2ccc(S(=O)(=O)N3C[C@@H](O)[C@H](F)C3)cc2F)nc2cc(C(=O)O)ccc12 [Example 49] | 81.9% |  |  |  |
| 159 nM | Cc1cc(S(=O)(=O)N2CC[C@H](F)C2)ccc1-c1nc2cc(C(=O)O)ccc2c(C)c1F [Example 51] | 77.8% |  |  |  |
| 428 nM | Cc1cc(-c2ccc(S(=O)(=O)N3CCCCC3)cc2)nc2cc(C(=O)O)ccc12 [Example 47] | 102% |  |  |  |
| 43 nM | Cc1cc(-c2c(F)cc(S(=O)(=O)N3CCC(F)CC3)cc2F)nc2nc(C(=O)N3CC4(CN(C)C4)C3)ccc12 [Example 46] | 80.9% |  |  |  |
| 24 nM | Cc1cc(-c2ccc(S(=O)(=O)N3CC[C@H](F)C3)cc2F)nc2cc(OC[C@@H](O)CO)ccc12 [Example 64] | 107% |  |  |  |
| 53 nM | Cc1c(F)c(-c2c(F)cc(S(=O)(=O)N3CC[C@H](F)C3)cc2F)nc2cc(CCN)ccc12 [Example 56] | 97% |  |  |  |
| 3750 nM | Cc1cc(-c2ccc(S(=O)(=O)N3CCC[C@H]3CO)cc2F)nc2cc(C(=O)O)ccc12 [Example 48] | 74% |  |  |  |
| 89 nM | Cc1c(F)c(-c2c(F)cc(S(=O)(=O)N3CC[C@H](F)C3)cc2F)nc2cc(C3CCNCC3)ccc12 [Example 57] | 87% |  |  |  |
| 7160 nM | Cc1cc(-c2ccc(S(=O)(=O)N3CC[C@H](F)C3)cc2F)nc2c(F)c(N3CCNCC3=O)ccc12 [Example 55] | 38.9% |  |  |  |
| 19 nM | Cc1cc(-c2c(F)cc(S(=O)(=O)N3CC[C@H](F)C3)cc2F)nc2cc(C(=O)N3CC4(CN(C)C4)C3)ccc12 [Example 42] | 78.1% |  |  |  |
| 33 nM | Cc1cc(-c2c(F)cc(S(=O)(=O)N3CC[C@H](F)C3)cc2F)nc2cc(C(=O)NC[C@H]3COCCN3)ccc12 [Example 52] | 94.2% |  |  |  |
